The target in the assay is Lysine-specific histone demethylase 1A (Homo sapiens, UniProt O60341). In words: In Vitro Enzyme Inhibition Activity Assay. How it is done: The purpose of this experiment was to test the in vitro inhibitory activity of the compounds against LSD1. The human recombinant LSD1 protein used in the experiment was purchased from Active Motif, and the enzyme level activity testing assay of LSD1 was performed using the Lance Ultra LSD1 Histone H3 Lysine 4 Demethylase Assay Kit (PerkinElmer). Tris-buffer (50 mMTris-HCl, 50 mMNaCl, 0.01% Tween-20, 1 mM DTT, 10 μM FAD, 10% glycerol, pH 9.0) was first prepared, and after preparation, the LSD1 fractions required for test were placed in this buffer and incubated for one hour at room temperature; the fractions included 4 μL of substrate solution ([…] Bio-H3K4me2, 1-24aa), 4 μL of enzyme solution (4 nM LSD1), and 2 μL of inhibitor in a 384-well microplate. After these operations, another 5 μL of assay mixture containing Eu-labeled H3K4me0 antibody and ULight-Streptavidin anti-biotin protein was added to the system, after which the fluorescence intensity of the components to be tested was detected by using Envision (PerkinElmer) in TR-FRET mode (excitation wavelength of 320 nm, emission wavelength of 620 nm). The test was repeated a total of three times to minimize errors. The final IC50 data were calculated by the software GraphPad Prism 5, and finally the sigmoidal dose-response (variable slope) method was used to obtain the fitted curve.

Our source for the IC50 values is BindingDB's records for patent US20250042862 (Shanghai Institute of Materia Medica, 2025).

Bounds are passed on as bounds.

The IC50 is the concentration needed to halve the response being measured. Read a low IC50 as higher potency. Compound `N#Cc1ccc(-c2nc(NC[C@H]3CCNC3)nc3ccc(-c4ccccc4C(F)(F)F)cc23)cc1F` [US20250042862, Compound 40] returned an IC50 of less than 30 nM.
In the case of `N#Cc1ccc(-c2nc(NC[C@H]3CCNC3)nc3ccc(-c4ccccc4Cl)cc23)cc1F` [US20250042862, Compound 42] it was less than 30 nM.
